Source: patent US7091202B2, “4-arylspirocycloalkyl-2-aminopyrimidine carboxamide KCNQ potassium channel modulators” (Bristol-Myers Squibb Company, priority 2004, dated 2006)
pEC50: −log10 of the molar value.

What follows are molecules tested against T1, hQ23 (HEK-293 cell line stably transfected with one of the members of the KCNQ family) (Homo sapiens, UniProt O43525+O43526) (assay: Thallium flux assay for KCNQ channel blockers (FLIPR, BTC dye)). Conditions: hQ23 cells, thallium flux assay.
T1 construct: expressed in transfected cells; host or cells: HEK-293, stably transfected
Format: cell-based
How it was run: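 HEK-293 cells stably expressing a KCNQ member, loaded with BTC-AM (2 μM) in chloride-free buffer, pH 7.3; compounds added at 1% DMSO, then Tl2SO4 stimulus on FLIPR (488/540 nm, 60 s). Minimal active concentration set at ≥4 SD above negative control; IC50 from 10-point 1:3 series, single-site logistic fit versus the positive-control blocker.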

T1 sequence (O43526 whole entry): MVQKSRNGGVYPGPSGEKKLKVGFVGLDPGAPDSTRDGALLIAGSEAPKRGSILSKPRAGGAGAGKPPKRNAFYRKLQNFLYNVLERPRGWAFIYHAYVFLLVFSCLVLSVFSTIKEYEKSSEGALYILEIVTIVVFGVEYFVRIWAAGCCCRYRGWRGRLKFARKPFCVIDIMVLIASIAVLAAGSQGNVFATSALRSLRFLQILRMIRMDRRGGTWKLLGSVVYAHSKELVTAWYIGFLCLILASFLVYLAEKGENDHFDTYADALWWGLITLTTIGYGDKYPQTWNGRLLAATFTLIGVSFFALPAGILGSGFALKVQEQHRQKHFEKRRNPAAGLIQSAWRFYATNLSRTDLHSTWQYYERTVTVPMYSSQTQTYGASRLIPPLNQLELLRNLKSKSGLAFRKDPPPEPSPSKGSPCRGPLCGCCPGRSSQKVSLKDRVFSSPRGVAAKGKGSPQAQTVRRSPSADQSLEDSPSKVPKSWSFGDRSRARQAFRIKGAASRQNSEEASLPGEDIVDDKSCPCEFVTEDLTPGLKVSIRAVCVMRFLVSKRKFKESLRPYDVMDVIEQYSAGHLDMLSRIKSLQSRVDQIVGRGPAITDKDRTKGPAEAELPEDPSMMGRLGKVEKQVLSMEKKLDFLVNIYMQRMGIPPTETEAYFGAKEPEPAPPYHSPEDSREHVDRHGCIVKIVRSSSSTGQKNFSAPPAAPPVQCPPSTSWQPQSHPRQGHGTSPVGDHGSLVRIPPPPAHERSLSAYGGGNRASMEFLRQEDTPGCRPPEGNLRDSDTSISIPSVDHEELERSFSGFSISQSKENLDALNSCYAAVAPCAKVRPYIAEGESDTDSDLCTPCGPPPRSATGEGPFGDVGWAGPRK
T1 sequence (O43525 whole entry): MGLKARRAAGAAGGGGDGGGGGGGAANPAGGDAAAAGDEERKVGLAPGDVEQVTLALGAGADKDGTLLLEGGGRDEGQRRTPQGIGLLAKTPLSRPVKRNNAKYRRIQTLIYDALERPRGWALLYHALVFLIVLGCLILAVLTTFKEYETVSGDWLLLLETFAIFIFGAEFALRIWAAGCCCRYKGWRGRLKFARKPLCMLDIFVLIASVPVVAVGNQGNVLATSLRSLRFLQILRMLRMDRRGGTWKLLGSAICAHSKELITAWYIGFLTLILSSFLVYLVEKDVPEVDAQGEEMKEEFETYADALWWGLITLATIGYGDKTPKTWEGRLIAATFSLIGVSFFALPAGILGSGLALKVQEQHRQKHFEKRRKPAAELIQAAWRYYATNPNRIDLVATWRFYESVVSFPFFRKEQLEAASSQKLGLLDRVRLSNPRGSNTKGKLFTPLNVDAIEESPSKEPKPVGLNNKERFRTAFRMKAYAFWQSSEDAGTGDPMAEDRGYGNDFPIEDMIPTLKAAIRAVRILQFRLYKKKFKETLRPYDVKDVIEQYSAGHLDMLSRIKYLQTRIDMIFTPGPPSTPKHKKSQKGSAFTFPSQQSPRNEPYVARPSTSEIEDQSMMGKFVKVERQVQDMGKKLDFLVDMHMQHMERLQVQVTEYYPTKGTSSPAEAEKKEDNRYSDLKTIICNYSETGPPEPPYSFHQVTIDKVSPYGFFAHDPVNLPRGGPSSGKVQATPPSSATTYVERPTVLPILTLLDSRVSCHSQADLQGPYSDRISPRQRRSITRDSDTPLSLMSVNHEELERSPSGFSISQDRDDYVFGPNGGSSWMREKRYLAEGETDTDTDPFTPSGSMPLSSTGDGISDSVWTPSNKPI

Row | pEC50 | SMILES
1 | 7.57 | O=C(NCc1ccc(Cl)cc1Cl)c1cnc(NC2CCCC2)nc1C1(c2ccc(F)cc2)CCCC1 [Example 266, 5-pyrimidinecarboxamide, 2-(cyclopentylamino)-N-[(2,4-dichlorophenyl)methyl]-4-[1-(4-fluorophenyl)cyclopentyl]-]
2 | 7.32 | CC1CCC(Nc2ncc(C(=O)NCc3ccc(F)cc3F)c(C3(c4ccc(F)cc4)CCCC3)n2)CC1 (stereo not drawn) [Example 267, 5-pyrimidinecarboxamide, N-[(2,4-difluorophenyl)methyl]-4-[1-(4-fluorophenyl)cyclopentyl]-2-[(4-methylcyclohexyl)amino]-]
3 | 6.20 | CN1CCN(c2ncc(C(=O)NCc3ccc(F)cc3F)c(C3(c4ccc(F)cc4)CCCC3)n2)CC1 [Example 268, 5-pyrimidinecarboxamide, N-[(2,4-difluorophenyl)methyl]-4-[1-(4-fluorophenyl)cyclopentyl]-2-(4-methyl-1-piperazinyl)-]
4 | 7.25 | CC1CCCN(c2ncc(C(=O)NCc3ccc(F)cc3F)c(C3(c4ccc(F)cc4)CCCC3)n2)C1 (stereo not drawn) [Example 269, 5-pyrimidinecarboxamide, N-[(2,4-difluorophenyl)methyl]-4-[1-(4-fluorophenyl)cyclopentyl]-2-(3-methyl-1-piperidinyl)-]
5 | 6.85 | CC1CCN(c2ncc(C(=O)NCc3ccc(F)cc3F)c(C3(c4ccc(F)cc4)CCCC3)n2)CC1 [Example 270, 5-pyrimidinecarboxamide, N-[(2,4-difluorophenyl)methyl]-4-[1-(4-fluorophenyl)cyclopentyl]-2-(4-methyl-1-piperidinyl)-]
6 | 6.27 | CN1CCC(N(C)c2ncc(C(=O)NCc3ccc(F)cc3F)c(C3(c4ccc(F)cc4)CCCC3)n2)CC1 [Example 271, 5-pyrimidinecarboxamide, N-[(2,4-difluorophenyl)methyl]-4-[1-(4-fluorophenyl)cyclopentyl]-2-[methyl(1-methyl-4-piperidinyl)amino]-]
7 | 6.01 | CN(C)CCNc1ncc(C(=O)NCc2ccc(F)cc2F)c(C2(c3ccc(F)cc3)CCCC2)n1 [Example 272, 5-pyrimidinecarboxamide, N-[(2,4-difluorophenyl)methyl]-2-[[2-(dimethylamino)ethyl]amino]-4-[1-(4-fluorophenyl)cyclopentyl]-]
8 | 6.94 | O=C(NCc1ccc(F)cc1F)c1cnc(NC2CCCC2)nc1C1(c2ccc(F)cc2)CCCC1 [Example 273, 5-pyrimidinecarboxamide, 2-(cyclopentylamino)-N-[(2,4-difluorophenyl)methyl]-4-[1-(4-fluorophenyl)cyclopentyl]-]
9 | 7.54 | CC1CCC(Nc2ncc(C(=O)NCc3cc(F)cc(C(F)(F)F)c3)c(C3(c4ccc(F)cc4)CCCC3)n2)CC1 (stereo not drawn) [Example 274, 5-pyrimidinecarboxamide, 4-[1-(4-fluorophenyl)cyclopentyl]-N-[[3-fluoro-5-(trifluoromethyl)phenyl]methyl]-2-[(4-methylcyclohexyl)amino]-]
10 | 7.62 | O=C(NCc1cc(F)cc(C(F)(F)F)c1)c1cnc(N2CCCC2)nc1C1(c2ccc(F)cc2)CCCC1 [Example 275, 5-pyrimidinecarboxamide, 4-[1-(4-fluorophenyl)cyclopentyl]-N-[[3-fluoro-5-(trifluoromethyl)phenyl]methyl]-2-(1-pyrrolidinyl)-]
11 | 6.49 | CN1CCN(c2ncc(C(=O)NCc3cc(F)cc(C(F)(F)F)c3)c(C3(c4ccc(F)cc4)CCCC3)n2)CC1 [Example 276, 5-pyrimidinecarboxamide, 4-[1-(4-fluorophenyl)cyclopentyl]-N-[[3-fluoro-5-(trifluoromethyl)phenyl]methyl]-2-(4-methyl-1-piperazinyl)-]
12 | 7.66 | CC1CCCN(c2ncc(C(=O)NCc3cc(F)cc(C(F)(F)F)c3)c(C3(c4ccc(F)cc4)CCCC3)n2)C1 (stereo not drawn) [Example 277, 5-pyrimidinecarboxamide, 4-[1-(4-fluorophenyl)cyclopentyl]-N-[[3-fluoro-5-(trifluoromethyl)phenyl]methyl]-2-(3-methyl-1-piperidinyl)-]
13 | 8.00 | CC1CCN(c2ncc(C(=O)NCc3cc(F)cc(C(F)(F)F)c3)c(C3(c4ccc(F)cc4)CCCC3)n2)CC1 [Example 278, 5-pyrimidinecarboxamide, 4-[1-(4-fluorophenyl)cyclopentyl]-N-[[3-fluoro-5-(trifluoromethyl)phenyl]methyl]-2-(4-methyl-1-piperidinyl)-]
14 | 7.26 | CCC(C)Nc1ncc(C(=O)NCc2cc(F)cc(C(F)(F)F)c2)c(C2(c3ccc(F)cc3)CCCC2)n1 (stereo not drawn) [Example 279, 5-pyrimidinecarboxamide, 4-[1-(4-fluorophenyl)cyclopentyl]-N-[[3-fluoro-5-(trifluoromethyl)phenyl]methyl]-2-[(1-methylpropyl)amino]-]
15 | 7.22 | O=C(NCc1cc(F)cc(C(F)(F)F)c1)c1cnc(NC2CCCC2)nc1C1(c2ccc(F)cc2)CCCC1 [Example 280, 5-pyrimidinecarboxamide, 2-(cyclopentylamino)-4-[1-(4-fluorophenyl)cyclopentyl]-N-[[3-fluoro-5-(trifluoromethyl)phenyl]methyl]-]
16 | 6.93 | CC1CCC(Nc2ncc(C(=O)NC(C)c3ccc(F)cc3)c(C3(c4ccc(F)cc4)CCCC3)n2)CC1 (stereo not drawn) [Example 281, 5-pyrimidinecarboxamide, 4-[1-(4-fluorophenyl)cyclopentyl]-N-[1-(4-fluorophenyl)ethyl]-2-[(4-methylcyclohexyl)amino]-]
17 | 6.23 | CC(NC(=O)c1cnc(N2CCCC2)nc1C1(c2ccc(F)cc2)CCCC1)c1ccc(F)cc1 (stereo not drawn) [Example 282, 5-pyrimidinecarboxamide, 4-[1-(4-fluorophenyl)cyclopentyl]-N-[1-(4-fluorophenyl)ethyl]-2-(1-pyrrolidinyl)-]
18 | 6.12 | CC(NC(=O)c1cnc(N2CCN(C)CC2)nc1C1(c2ccc(F)cc2)CCCC1)c1ccc(F)cc1 (stereo not drawn) [Example 283, 5-pyrimidinecarboxamide, 4-[1-(4-fluorophenyl)cyclopentyl]-N-[1-(4-fluorophenyl)ethyl]-2-(4-methyl-1-piperazinyl)-]
19 | 7.11 | CC1CCCN(c2ncc(C(=O)NC(C)c3ccc(F)cc3)c(C3(c4ccc(F)cc4)CCCC3)n2)C1 (stereo not drawn) [Example 284, 5-pyrimidinecarboxamide, 4-[1-(4-fluorophenyl)cyclopentyl]-N-[1-(4-fluorophenyl)ethyl]-2-(3-methyl-1-piperidinyl)-]
20 | 7.02 | CC1CCN(c2ncc(C(=O)NC(C)c3ccc(F)cc3)c(C3(c4ccc(F)cc4)CCCC3)n2)CC1 (stereo not drawn) [Example 285, 5-pyrimidinecarboxamide, 4-[1-(4-fluorophenyl)cyclopentyl]-N-[1-(4-fluorophenyl)ethyl]-2-(4-methyl-1-piperidinyl)-]
21 | 6.07 | CCC(C)Nc1ncc(C(=O)NC(C)c2ccc(F)cc2)c(C2(c3ccc(F)cc3)CCCC2)n1 (stereo not drawn) [Example 286, 5-pyrimidinecarboxamide, 4-[1-(4-fluorophenyl)cyclopentyl]-N-[1-(4-fluorophenyl)ethyl]-2-[(1-methylpropyl)amino]-]
22 | 6.24 | CC(NC(=O)c1cnc(NC2CCCC2)nc1C1(c2ccc(F)cc2)CCCC1)c1ccc(F)cc1 (stereo not drawn) [Example 287, 5-pyrimidinecarboxamide, 2-(cyclopentylamino)-4-[1-(4-fluorophenyl)cyclopentyl]-N-[1-(4-fluorophenyl)ethyl]-]
23 | 7.12 | CC1CCN(c2ncc(C(=O)NCc3ccc(C(F)(F)F)cc3)c(C3(c4ccc(F)cc4)CCCC3)n2)CC1 [Example 288, 5-pyrimidinecarboxamide, 4-[1-(4-fluorophenyl)cyclopentyl]-2-(4-methyl-1-piperidinyl)-N-[[4-(trifluoromethyl)phenyl]methyl]-]

What follows are molecules tested against mKCNQ2 (Mus musculus, UniProt Q9Z351) (assay: KCNQ patch-clamp: two-electrode voltage clamp on Xenopus laevis oocytes injected with mKCNQ2 cRNA). Conditions: percent inhibition relative to 5 mM TEA blockade at a membrane voltage of −40 mV; mKCNQ2 in oocytes.
Format: cell-based
Method: KCNQ Patch-clamp. Frog oocytes were surgically harvested from mature Xenopus laevis that had been anesthetized with 0.15% 3-aminobenzoic acid ethyl ester (tricaine). Only late stage V and VI oocytes were selected for cRNA injection, and the overlying follicle cell layers were enzymatically removed. Each oocyte was injected with approximately 60 ng of the mKCNQ2 cRNA. Following injection, oocytes were maintained at 17° C. in ND96 medium consisting of (in mM): NaCl, 90; KCl, 1.0; CaCl2, 1.0; MgCl2, 1.0; HEPES, 5.0; (pH 7.5) and supplemented with heat-inactivated horse serum (5%) and penicillin/streptomycin (5%).
Two-electrode voltage clamp techniques were used to record membrane currents; recording commenced 3–7 days following cRNA injection (Gribkoff, V. K., et al., Mol. Pharmacol. 1996, 50(1), 206–217). For recording and compound application, oocytes were placed in a recording chamber and incubated in Modified Barth's Solution (MBS) consisting of (in mM): NaCl, 88; NaHCO3, 2.4; KCI, 1.0; HEPES, 10; MgSO4, 0.82; Ca(NO3)2, 0.33; CaCl2, 0.41; (pH 7.5). Voltage-clamp protocols consisted of a series of 4 second duration depolarizing voltage steps from a holding potential of −90 mV to a maximal potential of +40 mV in 10 mV intervals. A family of outward currents was generated under control conditions for comparison with currents elicited in the presence of an experimental compound. Control or drug solutions were continually introduced into the recording chamber using a gravity-flow system with an in-line electronic valve array. A minimum of 5 oocytes was used for each drug concentration; drug concentrations ranged from 0.001 μM to 10 μM. During a single experiment, an oocyte was exposed to as many as three drug concentrations sequentially administered for 5 minutes each. All experiments ended with a 5 minute application of TEA (5 mM), a non-selective, but effective blocker of KCNQ channels. Typically, 5 mM TEA produced a maximal blockade of outward current when measured at the −40 mV membrane voltage (94.6+/−0.5% inhibition, n=112). In this manner, all drug effects could be presented as a percentage of TEA blockade, controlling for the variable levels of channel expression from oocyte to oocyte. Table 1 discloses data for representative examples. Data are expressed as percent inhibition relative to TEA blockade at a membrane voltage of −40 mV: A>50% TEA blockage at 100 nM, B>50% TEA blockage at 1 μM, C<50% TEA blockage at 1.0 μM.

mKCNQ2, sequence (Q9Z351 whole entry): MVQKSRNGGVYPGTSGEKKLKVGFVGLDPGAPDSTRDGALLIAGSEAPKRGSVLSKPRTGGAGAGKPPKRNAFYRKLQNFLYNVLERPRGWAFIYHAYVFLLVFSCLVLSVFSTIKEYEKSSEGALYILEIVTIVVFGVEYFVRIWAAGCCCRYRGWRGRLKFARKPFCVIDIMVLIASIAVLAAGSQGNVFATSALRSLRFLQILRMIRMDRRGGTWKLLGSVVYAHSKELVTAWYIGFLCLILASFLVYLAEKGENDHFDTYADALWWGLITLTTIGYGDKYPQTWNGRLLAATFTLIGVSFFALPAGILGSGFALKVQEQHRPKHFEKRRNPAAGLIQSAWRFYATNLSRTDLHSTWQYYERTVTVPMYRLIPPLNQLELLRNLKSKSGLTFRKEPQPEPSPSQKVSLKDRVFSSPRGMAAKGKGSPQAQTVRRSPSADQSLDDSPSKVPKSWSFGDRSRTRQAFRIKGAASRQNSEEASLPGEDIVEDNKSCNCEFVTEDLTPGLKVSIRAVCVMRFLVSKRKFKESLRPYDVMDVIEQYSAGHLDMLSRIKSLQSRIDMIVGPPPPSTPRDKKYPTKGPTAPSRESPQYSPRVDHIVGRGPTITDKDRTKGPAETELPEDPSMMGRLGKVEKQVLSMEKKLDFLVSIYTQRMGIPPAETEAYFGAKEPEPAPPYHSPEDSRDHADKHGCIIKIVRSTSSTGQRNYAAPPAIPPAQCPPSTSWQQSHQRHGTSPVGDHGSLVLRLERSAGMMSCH

Row | Percent TEA blockage | SMILES
24 | A (A > 50% TEA blockage at 100 nM) | CC1CCN(c2ncc(C(=O)NC(C)c3cccnc3)c(C3(c4ccccc4)CCCC3)n2)CC1 (stereo not drawn) [Example 16, 2-(4-Methyl-piperidin-1-yl)-4-(1-phenyl-cyclopentyl)-pyrimidine-5-carboxylic acid (1-pyridin-3-yl-ethyl)-amide]
